Structures can show the parent of a compound that is named as a salt.
Tests used:
HiBit-BRG1 = target: T1, HiBit-BRG1 (Homo sapiens, UniProt P51532); assay: HiBit-BRG1 cell-based degradation assay (Nano-Glo HiBiT Lytic Detection); conditions: HeLa cells expressing HiBit-BRG1 and LgBit, 24 h; for DC50: read-out: BRG1 HiBit Degradation IC50; for Dmax: read-out: BRG1 HiBit Degradation Maximum (%)
T1 construct: expressed in transfected cells
Summary of the method: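 Stable HeLa line co-expressing HiBit-BRG1 and LgBit, 5000 cells/well, treated 24 h in a tissue culture incubator. Lysed with Nano-Glo HiBiT lytic reagent, luminescence read. % degradation normalized to DMSO (high control) and 2 μM reference BRM/BRG1 degrader (low control).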

HiBiT-BRM = target: T2, HiBiT-BRM (Homo sapiens, UniProt P51531); assay: HiBiT-BRM cell-based degradation assay (Nano-Glo HiBiT Lytic Detection); conditions: HeLa cells expressing HiBiT-BRM, 24 h; for DC50: read-out: BRM HiBit Degradation IC50
T2 construct: expressed in transfected cells
T2 sequence (P51531 whole entry): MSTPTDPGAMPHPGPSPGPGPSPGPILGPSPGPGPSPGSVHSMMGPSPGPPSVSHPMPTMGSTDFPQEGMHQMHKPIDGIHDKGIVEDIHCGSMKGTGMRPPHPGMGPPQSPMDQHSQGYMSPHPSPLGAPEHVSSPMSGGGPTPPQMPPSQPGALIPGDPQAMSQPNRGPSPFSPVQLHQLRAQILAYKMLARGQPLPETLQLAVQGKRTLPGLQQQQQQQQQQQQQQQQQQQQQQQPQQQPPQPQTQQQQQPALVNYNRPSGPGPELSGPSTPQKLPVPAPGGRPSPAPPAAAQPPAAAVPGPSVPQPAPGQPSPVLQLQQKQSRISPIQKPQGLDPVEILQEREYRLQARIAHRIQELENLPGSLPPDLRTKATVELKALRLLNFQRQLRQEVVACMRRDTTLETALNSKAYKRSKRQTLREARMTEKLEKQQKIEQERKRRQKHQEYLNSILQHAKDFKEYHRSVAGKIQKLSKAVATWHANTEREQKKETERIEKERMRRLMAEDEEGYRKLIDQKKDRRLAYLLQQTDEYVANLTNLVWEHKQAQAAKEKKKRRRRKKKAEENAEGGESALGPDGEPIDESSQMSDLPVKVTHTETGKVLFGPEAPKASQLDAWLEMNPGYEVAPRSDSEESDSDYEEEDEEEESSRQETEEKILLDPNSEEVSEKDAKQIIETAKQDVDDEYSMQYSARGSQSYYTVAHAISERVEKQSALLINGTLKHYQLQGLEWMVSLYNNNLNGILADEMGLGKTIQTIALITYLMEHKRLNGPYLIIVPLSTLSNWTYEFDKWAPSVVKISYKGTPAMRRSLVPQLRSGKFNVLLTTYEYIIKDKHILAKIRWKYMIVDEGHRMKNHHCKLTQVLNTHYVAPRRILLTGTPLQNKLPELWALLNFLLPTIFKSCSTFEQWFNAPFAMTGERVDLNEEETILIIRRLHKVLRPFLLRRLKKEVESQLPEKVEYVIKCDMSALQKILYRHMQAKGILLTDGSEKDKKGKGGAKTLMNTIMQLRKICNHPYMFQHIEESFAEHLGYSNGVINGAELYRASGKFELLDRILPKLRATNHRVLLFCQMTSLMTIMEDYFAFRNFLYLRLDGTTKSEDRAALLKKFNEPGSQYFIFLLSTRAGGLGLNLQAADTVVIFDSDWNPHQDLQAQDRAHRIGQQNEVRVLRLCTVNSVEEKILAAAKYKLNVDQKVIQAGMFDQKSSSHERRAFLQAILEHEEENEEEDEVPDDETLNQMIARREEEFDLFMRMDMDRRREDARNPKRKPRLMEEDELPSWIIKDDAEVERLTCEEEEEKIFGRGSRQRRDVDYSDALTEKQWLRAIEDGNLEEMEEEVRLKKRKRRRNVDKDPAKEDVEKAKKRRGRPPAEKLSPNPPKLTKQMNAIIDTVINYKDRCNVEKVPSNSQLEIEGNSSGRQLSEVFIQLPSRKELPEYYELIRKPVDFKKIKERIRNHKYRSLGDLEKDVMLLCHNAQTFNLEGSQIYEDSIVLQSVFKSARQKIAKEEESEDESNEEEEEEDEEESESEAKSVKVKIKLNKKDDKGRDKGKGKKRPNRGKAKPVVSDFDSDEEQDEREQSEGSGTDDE
Summary of the method: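 HeLa cells stably expressing HiBiT-tagged BRM were treated for 24 h, then lysed with LgBiT-containing Nano-Glo reagent and luminescence read. % degradation scaled between DMSO (high control) and 2 μM reference BRM/BRG1 degrader (low control).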

T1 sequence (P51532 whole entry): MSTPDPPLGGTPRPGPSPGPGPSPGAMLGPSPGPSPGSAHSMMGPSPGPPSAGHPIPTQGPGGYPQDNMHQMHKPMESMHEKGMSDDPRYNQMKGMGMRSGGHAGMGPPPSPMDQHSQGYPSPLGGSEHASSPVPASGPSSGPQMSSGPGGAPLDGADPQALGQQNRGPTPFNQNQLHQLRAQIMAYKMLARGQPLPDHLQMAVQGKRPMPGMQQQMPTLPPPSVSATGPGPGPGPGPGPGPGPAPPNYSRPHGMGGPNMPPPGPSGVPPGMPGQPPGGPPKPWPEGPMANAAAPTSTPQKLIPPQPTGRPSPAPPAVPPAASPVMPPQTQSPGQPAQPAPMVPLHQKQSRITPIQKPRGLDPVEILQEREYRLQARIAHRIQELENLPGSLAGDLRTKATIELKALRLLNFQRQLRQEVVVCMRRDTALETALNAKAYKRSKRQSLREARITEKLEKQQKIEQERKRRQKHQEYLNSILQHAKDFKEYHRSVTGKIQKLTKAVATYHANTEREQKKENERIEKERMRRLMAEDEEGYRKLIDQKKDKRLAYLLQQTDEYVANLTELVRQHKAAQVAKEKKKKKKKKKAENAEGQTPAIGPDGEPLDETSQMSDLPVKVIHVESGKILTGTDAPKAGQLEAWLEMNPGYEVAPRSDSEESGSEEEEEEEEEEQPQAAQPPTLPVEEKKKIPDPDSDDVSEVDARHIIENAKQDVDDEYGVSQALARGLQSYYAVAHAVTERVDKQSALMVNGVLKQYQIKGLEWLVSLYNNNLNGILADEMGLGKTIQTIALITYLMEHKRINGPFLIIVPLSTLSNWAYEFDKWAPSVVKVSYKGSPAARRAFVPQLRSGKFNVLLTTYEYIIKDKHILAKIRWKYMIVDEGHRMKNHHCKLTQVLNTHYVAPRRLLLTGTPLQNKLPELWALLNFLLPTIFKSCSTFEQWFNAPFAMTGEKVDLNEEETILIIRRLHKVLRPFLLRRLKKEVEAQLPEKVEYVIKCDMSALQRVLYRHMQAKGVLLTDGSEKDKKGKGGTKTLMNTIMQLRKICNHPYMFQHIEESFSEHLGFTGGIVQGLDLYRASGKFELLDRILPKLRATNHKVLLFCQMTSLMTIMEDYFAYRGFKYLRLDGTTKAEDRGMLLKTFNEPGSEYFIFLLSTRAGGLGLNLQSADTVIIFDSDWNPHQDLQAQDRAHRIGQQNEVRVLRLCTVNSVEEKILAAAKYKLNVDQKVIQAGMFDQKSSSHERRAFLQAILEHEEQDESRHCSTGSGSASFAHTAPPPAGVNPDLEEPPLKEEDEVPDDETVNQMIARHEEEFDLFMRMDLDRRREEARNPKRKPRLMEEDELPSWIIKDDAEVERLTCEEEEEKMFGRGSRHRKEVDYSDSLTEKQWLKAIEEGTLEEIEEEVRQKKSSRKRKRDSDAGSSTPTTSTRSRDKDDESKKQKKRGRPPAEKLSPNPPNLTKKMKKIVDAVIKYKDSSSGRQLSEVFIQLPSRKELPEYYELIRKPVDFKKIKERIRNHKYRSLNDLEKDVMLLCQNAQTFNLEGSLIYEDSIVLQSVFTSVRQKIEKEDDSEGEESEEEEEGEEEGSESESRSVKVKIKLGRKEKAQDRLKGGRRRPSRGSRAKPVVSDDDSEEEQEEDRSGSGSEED

DC50 (HiBit-BRG1) [µM]	Dmax (HiBit-BRG1) [%]	DC50 (HiBiT-BRM) [µM]	SMILES	BRM HiBit Degradation Maximum (%) (HiBiT-BRM)
> 1	< 50	> 1	Nc1nnc(-c2ccccc2O)cc1OCCc1ccc(CNC(=O)CCOCCOCCNc2cccc3c2C(=O)N(C2CCC(=O)NC2=O)C3=O)cc1 (stereo not shown) [Compound 74, N-(4-(2-((3-amino-6-(2-hydroxyphenyl)pyridazin-4-yl)oxy)ethyl)benzyl)-3-(2-(2-((2-(2,6-dioxopiperidin-3-yl)-1,3-dioxoisoindolin-4-yl)amino)ethoxy)ethoxy)propanamide]	C (“C” indicates maximum degradation <50%)
> 1	< 50	> 1	Nc1nnc(-c2ccccc2O)cc1N1CCN(CCNC(=O)CCOCCOCCNc2ccc3c(c2)C(=O)N(C2CCC(=O)NC2=O)C3=O)CC1 (stereo not shown) [Compound 91, N-(2-[4-[3-amino-6-(2-hydroxyphenyl)pyridazin-4-yl]piperazin-1-yl]ethyl)-3-[2-(2-[[2-(2,6-dioxopiperidin-3-yl)-1,3-dioxo-2,3-dihydro-1H-isoindol-5-yl]amino]ethoxy)ethoxy]propanamide]	C (“C” indicates maximum degradation <50%)
> 0.1	> 50	> 0.01	Cc1ncsc1-c1ccc([C@H](C)NC(=O)[C@@H]2C[C@@H](O)CN2C(=O)[C@@H](NC(=O)CCCCCCCCCCCCCCCC(=O)NCc2ccc(CCOc3cc(-c4ccccc4O)nnc3N)cc2)C(C)(C)C)cc1 [Compound 172, N1-(4-(2-((3-amino-6-(2-hydroxyphenyl)pyridazin-4-yl)oxy)ethyl)benzyl)-N17-((S)-1-((2S,4R)-4-hydroxy-2-(((S)-1-(4-(4-methylthiazoi-5-yl)phenyl)ethyl)carbamoyl)pyrrolidin-1-yl)-3,3-dimethyl-1-oxobutan-2-yl)heptadecanediamide]	A (“A” indicates maximum degradation ≥75%)
> 0.1	> 50	> 0.1	Cc1ncsc1-c1ccc(CNC(=O)[C@@H]2C[C@@H](O)CN2C(=O)[C@@H](NC(=O)CCCCCCCC(=O)NCc2ccc(CCOc3cc(-c4ccccc4O)nnc3N)cc2)C(C)(C)C)cc1 [Compound 33]	A (“A” indicates maximum degradation ≥75%)
> 1	< 50	> 0.01	Cc1ncsc1-c1ccc([C@H](C)NC(=O)[C@@H]2C[C@@H](O)CN2C(=O)[C@@H](NC(=O)CCCCCCCCCCCCCC(=O)NCc2ccc(CCOc3cc(-c4ccccc4O)nnc3N)cc2)C(C)C)cc1 [Compound 246, N1-(4-(2-((3-amino-6-(2-hydroxyphenyl)pyridazin-4-yl)oxy)ethyl)benzyl)-N15-((S)-1-((2S,4R)-4-hydroxy-2-(((S)-1-(4-(4-methylthiazol-5-yl)phenyl)ethyl)carbamoyl)pyrrolidin-1-yl)-3-methyl-1-oxobutan-2-yl)pentadecanediamide]	A (“A” indicates maximum degradation ≥75%)
> 1	< 50	> 1	Cc1ncsc1-c1ccc([C@H](C)NC(=O)[C@@H]2C[C@@H](O)CN2C(=O)[C@@H](NC(=O)CCN2CCN(CCCCC(=O)NCc3ccc(CCOc4cc(-c5ccccc5O)nnc4N)cc3)CC2)C(C)(C)C)cc1 [Compound 265, (2S,4R)-1-((S)-2-(3-(4-(5-((4-(2-((3-amino-6-(2-hydroxyphenyl)pyridazin-4-yl)oxy)ethyl)benzyl)amino)-5-oxopentyl)piperazin-1-yl)propanamido)-3,3-dimethylbutanoyl)-4-hydroxy-N-((S)-1-(4-(4-methylthiazol-5-yl)phenyl)ethyl)pyrrolidine-2-carboxamide]	B (“B” indicates maximum degradation ≥50%)
> 1	< 50	> 1	Cc1ncsc1-c1ccc(CNC(=O)[C@@H]2C[C@@H](O)CN2C(=O)[C@@H](NC(=O)CCN2CC3(CN(CCC(=O)NCc4ccc(CCOc5cc(-c6ccccc6O)nnc5N)cc4)C3)C2)C(C)(C)C)cc1 [Compound 188, (2S,4R)-1-[(2S)-2-(3-[6-[2-([[4-(2-[[3-amino-6-(2-hydroxyphenyl)pyridazin-4-yl]oxy]ethyl)phenyl]methyl]carbamoyl)ethyl]-2,6-diazaspiro[3.3]heptan-2-yl]propanamido)-3,3-dimethylbutanoyl]-4-hydroxy-N-[[4-(4-methyl-1,3-thiazol-5-yl)phenyl]methyl]pyrrolidine-2-carboxamide]	C (“C” indicates maximum degradation <50%)
> 1	< 50	> 1	Cc1ncsc1-c1ccc(CNC(=O)[C@@H]2C[C@@H](O)CN2C(=O)[C@@H](NC(=O)COCCOCCOCC(=O)NCc2ccc(CCOc3cc(-c4ccccc4O)nnc3N)cc2)C(C)(C)C)cc1 [Compound 38, (2S,4R)-1-[(2S)-2-[2-(2-[2-[([[4-(2-[[3-amino-6-(2-hydroxyphenyl)pyridazin-4-yl]oxy]ethyl)phenyl]methyl]carbamoyl)methoxy]ethoxy]ethoxy)acetamido]-3,3-dimethylbutanoyl]-4-hydroxy-N-[[4-(4-methyl-1,3-thiazol-5-yl)phenyl]methyl]pyrrolidine-2-carboxamide]	B (“B” indicates maximum degradation ≥50%)
> 1	> 50	> 1	Nc1nnc(-c2cc(F)cc(Cl)c2O)cc1OCCc1ccc(CNCCCCCOc2cccc3c2C(=O)N(C2CCC(=O)NC2=O)C3=O)cc1 (stereo not shown) [Compound 119, 4-((5-((4-(2-((3-amino-6-(3-chloro-5-fluoro-2-hydroxyphenyl)pyridazin-4-yl)oxy)ethyl)benzyl)amino)pentyl)oxy)-2-(2,6-dioxopiperidin-3-yl)isoindoline-1,3-dione; formic acid salt]	C (“C” indicates maximum degradation <50%)

The next lines start with the compound.

SMILES	DC50 (HiBit-BRG1) [µM]	Dmax (HiBit-BRG1) [%]	DC50 (HiBiT-BRM) [µM]	BRM HiBit Degradation Maximum (%) (HiBiT-BRM)
Cc1ncsc1-c1ccc(CNC(=O)[C@@H]2C[C@@H](O)CN2C(=O)[C@@H](NC(=O)CN2CCC(OC3CCN(CCC(=O)NCc4ccc(CCOc5cc(-c6ccccc6O)nnc5N)cc4)CC3)CC2)C(C)(C)C)cc1 [Compound 244, (2S,4R)-1-((S)-2-(2-(4-((1-(3-((4-(2-((3-amino-6-(2-hydroxyphenyl)pyridazin-4-yl)oxy)ethyl)benzyl)amino)-3-oxopropyl)piperidin-4-yl)oxy)piperidin-1-yl)acetamido)-3,3-dimethylbutanoyl)-4-hydroxy-N-(4-(4-methylthiazol-5-yl)benzyl)pyrrolidine-2-carboxamide]	> 1	< 50	> 1	A (“A” indicates maximum degradation ≥75%)
Nc1nnc(-c2ccccc2O)cc1N1CCN(C(=O)C2CC2CNC(=O)COc2cccc3c2C(=O)N(C2CCC(=O)NC2=O)C3=O)CC1 (stereo not shown) [Compound 77, N-[(2-[4-[3-amino-6-(2-hydroxyphenyl)pyridazin-4-yl]piperazine-1-carbonyl]cyclopropyl)methyl]-2-[[2-(2,6-dioxopiperidin-3-yl)-1,3-dioxoisoindol-4-yl]oxy]acetamide]	> 1	–	> 1	C (“C” indicates maximum degradation <50%)
Cc1ncsc1-c1ccc([C@H](C)NC(=O)[C@@H]2C[C@@H](O)CN2C(=O)[C@@H](c2cc(OCCN3[C@@H]4CC[C@H]3CN(C(=O)c3ccc(CCOc5cc(-c6ccccc6O)nnc5N)cc3)C4)no2)C(C)C)cc1 [Compound 221, (2S,4R)-1-[(2R)-2-[3-(2-[3-[4-(2-[[3-amino-6-(2-hydroxyphenyl)pyridazin-4-yl]oxy]ethyl)benzoyl]-3,8-diazabicyclo[3.2.1]octan-8-yl]ethoxy)-1,2-oxazol-5-yl]-3-methylbutanoyl]-4-hydroxy-N-[(1S)-1-[4-(4-methyl-1,3-thiazol-5-yl)phenyl]ethyl]pyrrolidine-2-carboxamide]	< 0.01	> 75	> 0.01	A (“A” indicates maximum degradation ≥75%)
Nc1nnc(-c2ccccc2O)cc1OCCc1ccc(CNCCCCCOc2cccc3c2C(=O)N(C2CCC(=O)NC2=O)C3=O)cc1 (stereo not shown) [Compound 9, 4-[[5-([[4-(2-[[3-amino-6-(2-hydroxyphenyl)pyridazin-4-yl]oxy]ethyl)phenyl]methyl]amino)pentyl]oxy]-2-(2,6-dioxopiperidin-3-yl)isoindole-1,3-dione]	> 1	–	> 0.1	A (“A” indicates maximum degradation ≥75%)
Nc1nnc(-c2ccccc2O)cc1OCCc1ccc(CNCCCNc2cccc3c2C(=O)N(C2CCC(=O)NC2=O)C3=O)cc1 (stereo not shown) [Compound 108, 4-[[3-([[4-(2-[[3-amino-6-(2-hydroxyphenyl)pyridazin-4-yl]oxy]ethyl)phenyl]methyl]amino)propyl]amino]-2-(2,6-dioxopiperidin-3-yl)isoindole-1,3-dione, formic acid salt]	> 1	> 50	> 0.01	B (“B” indicates maximum degradation ≥50%)
Cc1ncsc1-c1ccc([C@H](C)NC(=O)[C@@H]2C[C@@H](O)CN2C(=O)[C@@H](NC(=O)CCN2C[C@H]3CN(CCC(=O)NCc4ccc(CCOc5cc(-c6ccccc6O)nnc5N)cc4)C[C@H]3C2)C(C)(C)C)cc1 [Compound 259, (2S,4R)-1-((2S)-2-(3-(5-(3-((4-(2-((3-amino-6-(2-hydroxyphenyl)pyridazin-4-yl)oxy)ethyl)benzyl)amino)-3-oxopropyl)hexahydropyrrolo[3,4-c]pyrrol-2(1H)-yl)propanamido)-3,3-dimethylbutanoyl)-4-hydroxy-N-((S)-1-(4-(4-methylthiazol-5-yl)phenyl)ethyl)pyrrolidine-2-carboxamide]	> 1	< 50	> 1	C (“C” indicates maximum degradation <50%)

— patent US20230150974A1 (Foghorn Therapeutics Inc., priority 2020, published 2023)
